Experimental data as given in patent US20220265629A1, “TREATMENT OF SYSTOLIC DYSFUNCTION AND HEART FAILURE WITH REDUCED EJECTION FRACTION WITH THE COMPOUND (R)-4-(1-((3-(DIFLUOROMETHYL)-1-METHYL-1H-PYRAZOL-4-YL)SULFONYL)-1-FLUOROETHYL)-N-(ISOXAZOL-3-YL)PIPERIDINE-1-CARBOXAMIDE” (MyoKardia, Inc., priority 2019, published 2022).
Several values for one entry are separate records, joined by “and”; a condition that tells them apart may be missing. Equal entries are not always repeated. Where two headings read alike, the source gives them in different places.

Assay: HFrEF study Part 2 (MAD Cohorts A-D): plasma pharmacokinetics
Format: in vivo, human
Settings: for Plasma concentration, Mean / Plasma concentration, Median: MAD cohorts; for AUC / Cmax / half-life: human, plasma, oral; for half-life: read-out: t1/2, λz (converted)
From the text: This was a randomized, parallel-group, DB, placebo-controlled, adaptive design, sequential ascending (oral) multiple-close study in stable patients with heart failure. Four MAD Cohorts (A, B, C, D) were enrolled (FIG. 5B). An SRC reviewed results from each cohort and determined the close and confirmed initial sample size for the subsequent cohort. Additionally, the first 3 patients in each cohort had LVEF≥25%; the SRC reviewed preliminary safety data from these patients and decided whether to open cohort enrollment to patients with LVEF<25%.
After Screening and qualification, patients were confined to a clinical testing facility from Day 1 (Check-in) to Day 11. Each patient initially received placebo BID for 2 days (Days 1 and 2) in single-blinded manner (“run-in” during acclimatization to confinement in the Clinical Testing Unit) prior to receiving the randomized DB study drug treatment on Day 3. All patients then received either placebo or active Compound I for 7 days (Days 3 through 9), with a follow-up period with patients discharged from the unit on Day 11. A final follow-up clinic visit was conducted on Day 16. More than one patient could be closed in a cohort at the same time or during the same week depending on administrative issues, i.e., capacity and scheduling.
Patients were closed twice daily (every 12 hours). Doses could occur±2 hours from scheduled dosing times as long as closes were separated by at least 10 hours and by no more than 14 hours. The exception to the twice daily dosing was on Day 9 (last dose of randomized DB study drug treatment). On Day 9, a single morning close was administered.
During the study, multiple evaluations were performed that included: serial TTE assessments (11-14 TTEs per patient on Days 1, 2, 3, 4, 7, 9, 10 and 11); PK sampling (PK sample collected concomitantly with every post-randomization echocardiogram); ECGs (on Days 2, 3, 4, 7, 9, 10, 11 and 16); troponin (collected concomitantly with every post-randomization ECG); and safety laboratory assessments. Confined patients underwent continuous telemetry. Holter monitoring was performed in all patients at baseline (Days 1-2) and at the end of double-blind treatment (Days 7-9). Vital signs were collected daily.
Study medication consisted of Compound I 5 mg tablets, 25 mg tablets, 100 mg tablets, or matching placebo tablets. In Part 1 (SAD), Compound I or placebo was administered after an overnight fast (at least 6 hours), while in Part 2 (MAD), Compound I was administered after a 2 hour fast (Cohort A) or with food (Cohorts B, C, and D). The close was ingested with a minimum of 240 mL of water, but more water was ingested as needed. The entire close was administered over a period of up to 15 minutes. The time of close used to determine future assessments was the time the last tablet was taken. In the cohorts for Part 2 (MAD), a BID regimen was used.
In Part 2 (MAD), Cohort A patients fasted for 2 hours before and 2 hours after dosing. For example, if morning dosing occurred at 8 AM, patients could have a snack at 6 AM and a full breakfast at 10 AM. If afternoon dosing occurred at 8 PM, patients could have dinner at 6 PM and a snack at 10 PM. […] Cohort B, C, and D patients ingested food with each close.

[1] = MAD Cohort C, 75 mg BID (with food), individual subjects
[2] = MAD Cohort D, 100 mg BID (with food), Mean
[3] = plasma concentration group 2000-<3500 ng/mL (n = 26)
[4] = plasma concentration group <2000 ng/mL (n = 30)
[5] = plasma concentration group ≥3500 ng/mL (n = 13)

**Q.** With `Cn1cc(S(=O)(=O)[C@@](C)(F)C2CCN(C(=O)Nc3ccon3)CC2)c(C(F)F)n1` [Compound I, (R)-4-(1-((3-(difluoromethyl)-1-methyl-1H-pyrazol-4-yl)sulfonyl)-1-fluoroethyl)-N-(isoxazol-3-yl)piperidine-1-carboxamide] as the compound, how does the “Cmax, Day 1” value [1] read?
**A.** 1020 ng/mL and 1190 ng/mL and 1030 ng/mL and 1150 ng/mL and 1650 ng/mL and 1360 ng/mL

**Q.** What about the “Cmax, SS” value [1] of the same compound?
**A.** 3860 ng/mL and 1840 ng/mL and 3810 ng/mL and 4140 ng/mL and 4940 ng/mL and 3220 ng/mL and 3930 ng/mL and 4720 ng/mL and 5010 ng/mL

**Q.** What about the “Cmin, SS” value [1] of the same compound?
**A.** 1740 ng/mL and 954 ng/mL and 2660 ng/mL and 3240 ng/mL and 3910 ng/mL and 2530 ng/mL and 2440 ng/mL and 3930 ng/mL and 3900 ng/mL

**Q.** What about the “t1/2, λz” value [1] of the same compound?
**A.** 13.55 h and 15.34 h and 20.46 h and 23.11 h and 41.54 h and 15.67 h and 13.72 h and 30.37 h and 24.06 h

**Q.** What about the AUC_TAU (MAD Cohort C, 75 mg BID (with food), steady state, individual subjects) of the same compound?
**A.** 32340 ng·h/mL and 15700 ng·h/mL and 37520 ng·h/mL and 44850 ng·h/mL and 53180 ng·h/mL and 35560 ng·h/mL and 38470 ng·h/mL and 51200 ng·h/mL and 53690 ng·h/mL

**Q.** What about the “Accumulation Ratio AUC tau” value [2] of the same compound?
**A.** 4.65

**Q.** What about the “Accumulation Ratio Cmax” value [2] of the same compound?
**A.** 3.89

**Q.** What about the Accumulation_Index [2] of the same compound?
**A.** 3.30

**Q.** What about the “Cavg, ss” value [2] of the same compound?
**A.** 5030 ng/mL

**Q.** What about the “Cmin, SS” value [2] of the same compound?
**A.** 4333 ng/mL

**Q.** And the “Plasma concentration, Mean” value [3]?
**A.** 2716 ng/mL

**Q.** What about the “Plasma concentration, Median” value [3] of the same compound?
**A.** 2740 ng/mL

**Q.** What about the “Plasma concentration, Mean” value [4] of the same compound?
**A.** 1169 ng/mL

**Q.** What about the “Plasma concentration, Median” value [4] of the same compound?
**A.** 1220 ng/mL

**Q.** What about the “Plasma concentration, Mean” value [5] of the same compound?
**A.** 4448 ng/mL

**Q.** And the “Plasma concentration, Median” value [5]?
**A.** 4290 ng/mL

**Q.** And the AUC (50 mg, MAD Cohort B, 50 mg BID (with food), Mean, read-out: AUCtau, Day 1)?
**A.** 7300 ng·h/mL

**Q.** And the Cmax (50 mg, MAD Cohort B, 50 mg BID (with food), Mean, read-out: Cmax, Day 1)?
**A.** 806 ng/mL

**Q.** What about the Cmax (50 mg, MAD Cohort B, 50 mg BID (with food), Mean, read-out: Cmax, SS) of the same compound?
**A.** 2770 ng/mL

**Q.** And the half-life (50 mg, MAD Cohort B, 50 mg BID (with food), Mean)?
**A.** 25.1 h

**Q.** What about the AUC (50 mg, MAD Cohort B, 50 mg BID (with food), individual subjects, read-out: AUCtau, Day 1) of the same compound?
**A.** 7430 ng·h/mL

**Q.** And the Cmax (50 mg, MAD Cohort B, 50 mg BID (with food), individual subjects, read-out: Cmax, Day 1)?
**A.** 933 ng/mL

**Q.** And the Cmax (50 mg, MAD Cohort B, 50 mg BID (with food), individual subjects, read-out: Cmax, SS)?
**A.** 2950 ng/mL

**Q.** What about the AUC (50 mg, MAD Cohort B, 50 mg BID (with food), steady state, Mean, read-out: AUC_TAU) of the same compound?
**A.** 28900 ng·h/mL

**Q.** What about the AUC (50 mg, MAD Cohort B, 50 mg BID (with food), steady state, individual subjects, read-out: AUC_TAU) of the same compound?
**A.** 29700 ng·h/mL

**Q.** And the AUC (75 mg, MAD Cohort A, 75 mg BID (4 h fasting), Mean, read-out: AUCtau, Day 1)?
**A.** 10400 ng·h/mL

**Q.** And the Cmax (75 mg, MAD Cohort A, 75 mg BID (4 h fasting), Mean, read-out: Cmax, Day 1)?
**A.** 1120 ng/mL

**Q.** And the Cmax (75 mg, MAD Cohort A, 75 mg BID (4 h fasting), Mean, read-out: Cmax, SS)?
**A.** 4050 ng/mL

**Q.** And the half-life (75 mg, MAD Cohort A, 75 mg BID (4 h fasting), Mean)?
**A.** 21.4 h

**Q.** And the AUC (75 mg, MAD Cohort A, 75 mg BID (4 h fasting), individual subjects, read-out: AUCtau, Day 1)?
**A.** 10600 ng·h/mL

**Q.** What about the Cmax (75 mg, MAD Cohort A, 75 mg BID (4 h fasting), individual subjects, read-out: Cmax, Day 1) of the same compound?
**A.** 1060 ng/mL

**Q.** What about the Cmax (75 mg, MAD Cohort A, 75 mg BID (4 h fasting), individual subjects, read-out: Cmax, SS) of the same compound?
**A.** 4580 ng/mL

**Q.** And the AUC (75 mg, MAD Cohort A, 75 mg BID (4 h fasting), steady state, Mean, read-out: AUC_TAU)?
**A.** 41000 ng·h/mL

**Q.** What about the AUC (75 mg, MAD Cohort A, 75 mg BID (4 h fasting), steady state, individual subjects, read-out: AUC_TAU) of the same compound?
**A.** 46200 ng·h/mL

**Q.** And the AUC (75 mg, MAD Cohort C, 75 mg BID (with food), Mean, read-out: AUCtau, Day 1)?
**A.** 10600 ng·h/mL

**Q.** And the Cmax (75 mg, MAD Cohort C, 75 mg BID (with food), Mean, read-out: Cmax, Day 1)?
**A.** 1250 ng/mL

**Q.** What about the Cmax (75 mg, MAD Cohort C, 75 mg BID (with food), Mean, read-out: Cmax, SS) of the same compound?
**A.** 3940 ng/mL

**Q.** And the half-life (75 mg, MAD Cohort C, 75 mg BID (with food), Mean)?
**A.** 22 h

**Q.** And the Cmax (75 mg, MAD Cohort C, 75 mg BID (with food), individual subjects, read-out: Cmax, Day 1)?
**A.** 1780 ng/mL

**Q.** What about the AUC (75 mg, MAD Cohort C, 75 mg BID (with food), steady state, Mean, read-out: AUC_TAU) of the same compound?
**A.** 40300 ng·h/mL

**Q.** And the AUC (100 mg, MAD Cohort D, 100 mg BID (with food), Mean, read-out: AUCtau, Day 1)?
**A.** 12900 ng·h/mL

**Q.** And the Cmax (100 mg, MAD Cohort D, 100 mg BID (with food), Mean, read-out: Cmax, Day 1)?
**A.** 1480 ng/mL

**Q.** What about the Cmax (100 mg, MAD Cohort D, 100 mg BID (with food), Mean, read-out: Cmax, SS) of the same compound?
**A.** 5680 ng/mL

**Q.** And the half-life (100 mg, MAD Cohort D, 100 mg BID (with food), Mean)?
**A.** 23.1 h

**Q.** What about the AUC (100 mg, MAD Cohort D, 100 mg BID (with food), individual subjects, read-out: AUCtau, Day 1) of the same compound?
**A.** 11600 ng·h/mL

**Q.** What about the Cmax (100 mg, MAD Cohort D, 100 mg BID (with food), individual subjects, read-out: Cmax, Day 1) of the same compound?
**A.** 1560 ng/mL

**Q.** And the Cmax (100 mg, MAD Cohort D, 100 mg BID (with food), individual subjects, read-out: Cmax, SS)?
**A.** 5210 ng/mL

**Q.** And the half-life (100 mg, MAD Cohort D, 100 mg BID (with food), individual subjects)?
**A.** 24.3 h

**Q.** And the AUC (100 mg, MAD Cohort D, 100 mg BID (with food), steady state, Mean, read-out: AUC_TAU)?
**A.** 60400 ng·h/mL
